Assay results taken from the supplement of paper PMC11451515.

Assays:
Details in all cases: 48 h
P12-Ichikawa [1] = experiment: AUC of viability dose-response curve (% viability x log10 dose units); higher = less sensitive
Summary of the method: (§1)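 In 1536-well plates, leukemia cells adapted to each medium (500 or 1000 cells/well) were exposed for 48 h at 37°C to library compounds in DMSO across 11 threefold doses, 47 μM down to 0.79 nM. Viability was read by CellTiter-Glo One luminescence and normalised per plate to DMSO and cell-free wells. A four-parameter log-logistic fit over log10 doses was integrated by trapezoidal rule. This yielded the area under the curve, with over-full-viability curves scaled and quality-control failures dropped.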

NOMO1 [2] = experiment: as above
Summary of the method: as §1

P12-Ichikawa [3] = experiment: cell viability relative to DMSO control; higher = less cytotoxic
Summary of the method: (§2)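 Viability values are per-plate percentages of DMSO wells, with background from cell-free wells. Library compounds in DMSO were pin-dosed, in an 11-point threefold series from 47 μM to 0.79 nM, onto NOMO1 or SEM (500 cells/well) or P12-Ichikawa (1000 cells/well) leukemia cells in 1536-well plates (5 μl). Those cells had been adapted for at least four passages in each medium, and CellTiter-Glo One luminescence was read after 48 h at 37°C.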

SEM cells = experiment: as above
Summary of the method: as §2

NOMO1 [4] = experiment: as above
Summary of the method: as §2

[5] = RPMI 5 mM glucose + 10% dialyzed FBS
[6] = HPLM + 10% dialyzed FBS, 0.000781 µM
[7] = HPLM + 10% dialyzed FBS, 0.00234 µM
[8] = HPLM + 10% dialyzed FBS, 0.00702 µM
[9] = HPLM + 10% dialyzed FBS, 0.0211 µM
[10] = HPLM + 10% dialyzed FBS, 0.0632 µM
[11] = HPLM + 10% dialyzed FBS, 0.19 µM
[12] = HPLM + 10% dialyzed FBS, 0.569 µM
[13] = HPLM + 10% dialyzed FBS, 1.71 µM
[14] = HPLM + 10% dialyzed FBS, 5.12 µM
[15] = HPLM + 10% dialyzed FBS, 15.4 µM
[16] = HPLM + 10% dialyzed FBS, 46.1 µM
[17] = RPMI 5 mM glucose + 10% FBS, 0.000781 µM
[18] = RPMI 5 mM glucose + 10% FBS, 0.00234 µM
[19] = RPMI 5 mM glucose + 10% FBS, 0.00702 µM
[20] = RPMI 5 mM glucose + 10% FBS, 0.0211 µM
[21] = RPMI 5 mM glucose + 10% FBS, 0.0632 µM
[22] = RPMI 5 mM glucose + 10% FBS, 0.19 µM
[23] = RPMI 5 mM glucose + 10% FBS, 0.569 µM
[24] = RPMI 5 mM glucose + 10% FBS, 1.71 µM
[25] = RPMI 5 mM glucose + 10% FBS, 5.12 µM
[26] = RPMI 5 mM glucose + 10% FBS, 15.4 µM
[27] = RPMI 5 mM glucose + 10% FBS, 46.1 µM
[28] = RPMI 5 mM glucose + 10% dialyzed FBS, 0.000781 µM
[29] = RPMI 5 mM glucose + 10% dialyzed FBS, 0.00234 µM
[30] = RPMI 5 mM glucose + 10% dialyzed FBS, 0.00702 µM
[31] = RPMI 5 mM glucose + 10% dialyzed FBS, 0.0211 µM
[32] = RPMI 5 mM glucose + 10% dialyzed FBS, 0.0632 µM
[33] = RPMI 5 mM glucose + 10% dialyzed FBS, 0.19 µM
[34] = RPMI 5 mM glucose + 10% dialyzed FBS, 0.569 µM
[35] = RPMI 5 mM glucose + 10% dialyzed FBS, 1.71 µM
[36] = RPMI 5 mM glucose + 10% dialyzed FBS, 5.12 µM
[37] = RPMI 5 mM glucose + 10% dialyzed FBS, 15.4 µM
[38] = RPMI 5 mM glucose + 10% dialyzed FBS, 46.1 µM

In the case of CCC(=O)N[C@H]1CC[C@H](C(=O)N(C)c2ccc(-c3nc4ccccc4o3)cc2)C1, the “AUC of viability dose-response curve” value (P12-Ichikawa [1]; HPLM + 10% dialyzed FBS) is reported as 477, the “AUC of viability dose-response curve” value (P12-Ichikawa [1]; RPMI 5 mM glucose + 10% FBS) is reported as 458 and the “AUC of viability dose-response curve” value (P12-Ichikawa [1]; [5]) is reported as 453. The “AUC of viability dose-response curve” value (NOMO1 [2]; HPLM + 10% dialyzed FBS) was 454, the “AUC of viability dose-response curve” value (NOMO1 [2]; RPMI 5 mM glucose + 10% FBS) was 449 and the “AUC of viability dose-response curve” value (NOMO1 [2]; [5]) was 415. It also gave a cell viability (P12-Ichikawa [3]; [6]) of 95.4%, a cell viability (P12-Ichikawa [3]; [7]) of 97.1% and a cell viability (P12-Ichikawa [3]; [8]) of 101%. It also gave a cell viability (P12-Ichikawa [3]; [9]) of 102%, a cell viability (P12-Ichikawa [3]; [10]) of 100% and a cell viability (P12-Ichikawa [3]; [11]) of 99.5%. It also gave a cell viability (P12-Ichikawa [3]; [12]) of 110%, a cell viability (P12-Ichikawa [3]; [13]) of 103% and a cell viability (P12-Ichikawa [3]; [14]) of 107%. The cell viability (P12-Ichikawa [3]; [15]) was 104%, the cell viability (P12-Ichikawa [3]; [16]) was 84.4% and the cell viability (P12-Ichikawa [3]; [17]) was 92.3%. The cell viability (P12-Ichikawa [3]; [18]) was 95.4%, the cell viability (P12-Ichikawa [3]; [19]) was 96.4% and the cell viability (P12-Ichikawa [3]; [20]) was 91.3%. The cell viability (P12-Ichikawa [3]; [21]) was 101%, the cell viability (P12-Ichikawa [3]; [22]) was 105% and the cell viability (P12-Ichikawa [3]; [23]) was 108%. The cell viability (P12-Ichikawa [3]; [24]) was 95.6%, the cell viability (P12-Ichikawa [3]; [25]) was 97.5% and the cell viability (P12-Ichikawa [3]; [26]) was 100%. It also gave a cell viability (P12-Ichikawa [3]; [27]) of 54.8%, a cell viability (P12-Ichikawa [3]; [28]) of 89.9% and a cell viability (P12-Ichikawa [3]; [29]) of 92.2%. It also gave a cell viability (P12-Ichikawa [3]; [30]) of 91.5%, a cell viability (P12-Ichikawa [3]; [31]) of 98.3% and a cell viability (P12-Ichikawa [3]; [32]) of 94%. It also gave a cell viability (P12-Ichikawa [3]; [33]) of 99.7%, a cell viability (P12-Ichikawa [3]; [34]) of 98.2% and a cell viability (P12-Ichikawa [3]; [35]) of 109%. The cell viability (P12-Ichikawa [3]; [36]) was 99%, the cell viability (P12-Ichikawa [3]; [37]) was 94.6% and the cell viability (P12-Ichikawa [3]; [38]) was 65.1%. The cell viability (SEM cells; [6]) was 75.9%, the cell viability (SEM cells; [7]) was 68% and the cell viability (SEM cells; [8]) was 99.7%. For the same molecule, the cell viability (SEM cells; [9]) was 94.2%, the cell viability (SEM cells; [10]) was 99.8% and the cell viability (SEM cells; [11]) was 104%. It also gave a cell viability (SEM cells; [12]) of 101%, a cell viability (SEM cells; [13]) of 89% and a cell viability (SEM cells; [14]) of 110%. It also gave a cell viability (SEM cells; [15]) of 115%, a cell viability (SEM cells; [16]) of 96.4% and a cell viability (SEM cells; [17]) of 83.3%. The cell viability (SEM cells; [18]) was 51.8%, the cell viability (SEM cells; [19]) was 78.4% and the cell viability (SEM cells; [20]) was 89.5%. The cell viability (SEM cells; [21]) was 84.7%, the cell viability (SEM cells; [22]) was 101% and the cell viability (SEM cells; [23]) was 99.9%. The cell viability (SEM cells; [24]) was 82.2%, the cell viability (SEM cells; [25]) was 74.7% and the cell viability (SEM cells; [26]) was 74.2%. The cell viability (SEM cells; [27]) was 40%, the cell viability (SEM cells; [28]) was 91.9% and the cell viability (SEM cells; [29]) was 51.8%. It also gave a cell viability (SEM cells; [30]) of 83.5%, a cell viability (SEM cells; [31]) of 98.9% and a cell viability (SEM cells; [32]) of 98.4%. The cell viability (SEM cells; [33]) was 97%, the cell viability (SEM cells; [34]) was 96% and the cell viability (SEM cells; [35]) was 102%. The cell viability (SEM cells; [36]) was 94.7%, the cell viability (SEM cells; [37]) was 91% and the cell viability (SEM cells; [38]) was 45.3%. For the same molecule, the cell viability (NOMO1 [4]; [6]) was 85.7%, the cell viability (NOMO1 [4]; [7]) was 106% and the cell viability (NOMO1 [4]; [8]) was 74.4%. It also gave a cell viability (NOMO1 [4]; [9]) of 111%, a cell viability (NOMO1 [4]; [10]) of 103% and a cell viability (NOMO1 [4]; [11]) of 92.5%. For the same molecule, the cell viability (NOMO1 [4]; [12]) was 97.6%, the cell viability (NOMO1 [4]; [13]) was 98.2% and the cell viability (NOMO1 [4]; [14]) was 101%. For the same molecule, the cell viability (NOMO1 [4]; [15]) was 98.5%, the cell viability (NOMO1 [4]; [16]) was 78.3% and the cell viability (NOMO1 [4]; [17]) was 95.8%. For the same molecule, the cell viability (NOMO1 [4]; [18]) was 100%, the cell viability (NOMO1 [4]; [19]) was 89.6% and the cell viability (NOMO1 [4]; [20]) was 85.1%. For the same molecule, the cell viability (NOMO1 [4]; [21]) was 99.4%, the cell viability (NOMO1 [4]; [22]) was 101% and the cell viability (NOMO1 [4]; [23]) was 97.4%. For the same molecule, the cell viability (NOMO1 [4]; [24]) was 94.2%, the cell viability (NOMO1 [4]; [25]) was 86% and the cell viability (NOMO1 [4]; [26]) was 88.6%. For the same molecule, the cell viability (NOMO1 [4]; [27]) was 96.9%, the cell viability (NOMO1 [4]; [28]) was 83.8% and the cell viability (NOMO1 [4]; [29]) was 89.2%. The cell viability (NOMO1 [4]; [30]) was 89.8%, the cell viability (NOMO1 [4]; [31]) was 87.8% and the cell viability (NOMO1 [4]; [32]) was 86.1%. For the same molecule, the cell viability (NOMO1 [4]; [33]) was 86%, the cell viability (NOMO1 [4]; [34]) was 94.1% and the cell viability (NOMO1 [4]; [35]) was 90.4%. The cell viability (NOMO1 [4]; [36]) was 84.6%, the cell viability (NOMO1 [4]; [37]) was 81% and the cell viability (NOMO1 [4]; [38]) was 84.6%.
